Test results reported in patent US12404295B2, “(Hetero)aryl-methyl-thio-beta-D-galactopyranoside derivatives” (Idorsia Pharmaceuticals Ltd, priority 2019, dated 2025).
Read-outs that look alike come from different tables or passages of the source.

Key:
human Gal-1 (hGal-1) = human Gal-1 (hGal-1) (Homo sapiens (Human), UniProt P09382); assay: competitive binding assay: biotinylated hGal-1 binding to microplate-adsorbed asialofetuin (ASF); conditions: Table 15; read-out: IC50 (Galectin-1 inhibition)
Sequence of human Gal-1 (hGal-1) (P09382 whole entry): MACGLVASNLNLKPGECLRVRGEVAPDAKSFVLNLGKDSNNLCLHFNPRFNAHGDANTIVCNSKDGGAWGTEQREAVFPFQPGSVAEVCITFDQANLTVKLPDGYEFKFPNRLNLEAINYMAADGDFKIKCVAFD
How it was run: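 Biotinylated human Gal-1 (300-1000 ng/mL) competes with serially diluted compound for binding to ASF-coated plates, 3 h at 4° C. Bound protein detected with streptavidin-peroxidase and ABTS substrate (spectrophotometric). IC50 given as mean of several measurements.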

human Gal-3 (hGal-3) = human Gal-3 (hGal-3) (Homo sapiens (Human), UniProt P17931); assay: competitive binding assay: biotinylated hGal-3 binding to microplate-adsorbed asialofetuin (ASF)
Sequence of human Gal-3 (hGal-3) (P17931 whole entry): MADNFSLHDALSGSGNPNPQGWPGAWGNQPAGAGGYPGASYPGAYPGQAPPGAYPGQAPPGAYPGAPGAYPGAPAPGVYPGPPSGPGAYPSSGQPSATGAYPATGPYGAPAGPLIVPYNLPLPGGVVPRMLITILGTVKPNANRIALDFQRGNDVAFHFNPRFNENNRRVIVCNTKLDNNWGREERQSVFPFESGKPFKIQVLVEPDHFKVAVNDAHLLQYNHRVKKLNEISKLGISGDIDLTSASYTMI
How it was run: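 Competition of compounds with biotinylated human Gal-3 for asialofetuin-coated plates, 3 hours at 4° C. Bound Gal-3 detected with streptavidin-peroxidase (80 ng/mL, 1 hour, 4° C) and ABTS substrate. IC50 reported as the mean of several measurements.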

[1] = Gal-3 inhibition, binding of biotinylated hGal-3 to ASF, mean values, read-out: IC50
[2] = Table 9, 2-OMe-Gal inhibitors, read-out: IC50 (Gal-3 inhibition)
[3] = Table 10, 2-OMe-Gal inhibitors, read-out: IC50 (Gal-3 inhibition)

IC50 (human Gal-1 (hGal-1))	IC50 (human Gal-3 (hGal-3); [1])	IC50 (human Gal-3 (hGal-3); [2])	IC50 (human Gal-3 (hGal-3); [3])	Structure (SMILES)
130 nM	60 nM	–	–	CCc1c(C(S[C@@H]2O[C@H](CO)[C@H](O)[C@H](n3cc(-c4cc(F)c(F)c(F)c4)nn3)[C@H]2O)C2(O)CCC(F)(F)CC2)noc1C1CC1 (stereo partly drawn) [Example 2.44.130., (2S,3R,4S,5R,6R)-2-(((5-Cyclopropyl-4-ethylisoxazol-3-yl)(4,4-difluoro-1-hydroxycyclohexyl)methyl)thio)-6-(hydroxymethyl)-4-(4-(3,4,5-trifluorophenyl)-1H-1,2,3-triazol-1-yl)tetrahydro-2H-pyran-3,5-diol]
160 nM	20 nM	–	–	CCc1c([C@@H](S[C@@H]2O[C@H](CO)[C@H](O)[C@H](n3cc(-c4cc(F)c(F)c(F)c4)nn3)[C@H]2O)C2(O)CCC(F)(F)CC2)noc1C1CC1 [Example 2.44.130R., (2S,3R,4S,5R,6R)-2-(((R)-(5-Cyclopropyl-4-ethylisoxazol-3-yl)(4,4-difluoro-1-hydroxycyclohexyl)methyl)thio)-6-(hydroxymethyl)-4-(4-(3,4,5-trifluorophenyl)-1H-1,2,3-triazol-1-yl)tetrahydro-2H-pyran-3,5-diol]
160 nM	–	–	60 nM	CCc1c([C@@H](S[C@@H]2O[C@H](CO)[C@H](O)[C@H](n3cc(-c4cc(F)c(F)c(F)c4)nn3)[C@H]2OC)C2(O)CCC(F)(F)CC2)noc1C1CC1 [Example 2.44.130R.I.]
5650 nM	1850 nM	–	–	CCc1c([C@H](S[C@@H]2O[C@H](CO)[C@H](O)[C@H](n3cc(-c4cc(F)c(F)c(F)c4)nn3)[C@H]2O)C2(O)CCC(F)(F)CC2)noc1C1CC1 [Example 2.44.130S., (2S,3R,4S,5R,6R)-2-(((S)-(5-Cyclopropyl-4-ethylisoxazol-3-yl)(4,4-difluoro-1-hydroxycyclohexyl)methyl)thio)-6-(hydroxymethyl)-4-(4-(3,4,5-trifluorophenyl)-1H-1,2,3-triazol-1-yl)tetrahydro-2H-pyran-3,5-diol]
100 nM	–	–	130 nM	CO[C@@H]1[C@@H](n2cc(-c3cc(F)c(F)c(F)c3)nn2)[C@@H](O)[C@@H](CO)O[C@H]1S[C@H](c1noc(C2CC2)c1CC(C)C)C1(O)CCC(F)(F)CC1 [Example 2.44.131R.I., (2R,3R,4S,5R,6S)-6-(((R)-(5-Cyclopropyl-4-isobutylisoxazol-3-yl)(4,4-difluoro-1-hydroxycyclohexyl)methyl)thio)-2-(hydroxymethyl)-5-methoxy-4-(4-(3,4,5-trifluorophenyl)-1H-1,2,3-triazol-1-yl)tetrahydro-2H-pyran-3-ol]
13700 nM	9740 nM	–	–	CC(C)Cc1c([C@H](S[C@@H]2O[C@H](CO)[C@H](O)[C@H](n3cc(-c4cc(F)c(F)c(F)c4)nn3)[C@H]2O)C2(O)CCC(F)(F)CC2)noc1C1CC1 [Example 2.44.131S., (2S,3R,4S,5R,6R)-2-(((S)-(5-Cyclopropyl-4-isobutylisoxazol-3-yl)(4,4-difluoro-1-hydroxycyclohexyl)methyl)thio)-6-(hydroxymethyl)-4-(4-(3,4,5-trifluorophenyl)-1H-1,2,3-triazol-1-yl)tetrahydro-2H-pyran-3,5-diol]
160 nM	100 nM	–	–	CC(C)c1cccnc1C(S[C@@H]1O[C@H](CO)[C@H](O)[C@H](n2cc(-c3cc(F)c(F)c(F)c3)nn2)[C@H]1O)C1(O)CCC(F)(F)CC1 (stereo partly drawn) [Example 2.44.132., (2S,3R,4S,5R,6R)-2-(((4,4-Difluoro-1-hydroxycyclohexyl)(3-isopropylpyridin-2-yl)methyl)thio)-6-(hydroxymethyl)-4-(4-(3,4,5-trifluorophenyl)-1H-1,2,3-triazol-1-yl)tetrahydro-2H-pyran-3,5-diol]
50 nM	50 nM	–	–	CC(C)c1cccnc1[C@@H](S[C@@H]1O[C@H](CO)[C@H](O)[C@H](n2cc(-c3cc(F)c(F)c(F)c3)nn2)[C@H]1O)C1(O)CCC(F)(F)CC1 [Example 2.44.132R., (2S,3R,4S,5R,6R)-2-(((R)-(4,4-Difluoro-1-hydroxycyclohexyl)(3-isopropylpyridin-2-yl)methyl)thio)-6-(hydroxymethyl)-4-(4-(3,4,5-trifluorophenyl)-1H-1,2,3-triazol-1-yl)tetrahydro-2H-pyran-3,5-diol]
4700 nM	2270 nM	–	–	CC(C)c1cccnc1[C@H](S[C@@H]1O[C@H](CO)[C@H](O)[C@H](n2cc(-c3cc(F)c(F)c(F)c3)nn2)[C@H]1O)C1(O)CCC(F)(F)CC1 [Example 2.44.132S., (2S,3R,4S,5R,6R)-2-(((S)-(4,4-Difluoro-1-hydroxycyclohexyl)(3-isopropylpyridin-2-yl)methyl)thio)-6-(hydroxymethyl)-4-(4-(3,4,5-trifluorophenyl)-1H-1,2,3-triazol-1-yl)tetrahydro-2H-pyran-3,5-diol]

Second part, the compound before the results:

Structure (SMILES)	IC50 (human Gal-1 (hGal-1))	IC50 (human Gal-3 (hGal-3); [1])	IC50 (human Gal-3 (hGal-3); [2])	IC50 (human Gal-3 (hGal-3); [3])
Cc1nccnc1C(S[C@@H]1O[C@H](CO)[C@H](O)[C@H](n2cc(-c3cc(F)c(F)c(F)c3)nn2)[C@H]1O)C1(O)CCC(F)(F)CC1 (stereo partly drawn) [Example 2.44.129., (2S,3R,4S,5R,6R)-2-(((4,4-Difluoro-1-hydroxycyclohexyl)(3-methylpyrazin-2-yl)methyl)thio)-6-(hydroxymethyl)-4-(4-(3,4,5-trifluorophenyl)-1H-1,2,3-triazol-1-yl)tetrahydro-2H-pyran-3,5-diol]	350 nM	90 nM	–	–
Cc1nccnc1[C@@H](S[C@@H]1O[C@H](CO)[C@H](O)[C@H](n2cc(-c3cc(F)c(F)c(F)c3)nn2)[C@H]1O)C1(O)CCC(F)(F)CC1 [Example 2.44.129R., (2S,3R,4S,5R,6R)-2-(((R)-(4,4-Difluoro-1-hydroxycyclohexyl)(3-methylpyrazin-2-yl)methyl)thio)-6-(hydroxymethyl)-4-(4-(3,4,5-trifluorophenyl)-1H-1,2,3-triazol-1-yl)tetrahydro-2H-pyran-3,5-diol]	200 nM	30 nM	–	–
CO[C@@H]1[C@@H](n2cc(-c3cc(F)c(F)c(F)c3)nn2)[C@@H](O)[C@@H](CO)O[C@H]1S[C@H](c1nccnc1C)C1(O)CCC(F)(F)CC1 [Example 2.44.129R.I., (2R,3R,4S,5R,6S)-6-(((R)-(4,4-Difluoro-1-hydroxycyclohexyl)(3-methylpyrazin-2-yl)methyl)thio)-2-(hydroxymethyl)-5-methoxy-4-(4-(3,4,5-trifluorophenyl)-1H-1,2,3-triazol-1-yl)tetrahydro-2H-pyran-3-ol [1,3-di-deoxy-1-((4,4-difluoro-1-hydroxy-cyclohexan-1-yl)-(3-(-methyl)pyrazin-2-yl)methyl-(R)-thio)-2-O-methyl-3-[4-(3,4,5-trifluorophenyl)-1H-1,2,3-triazol-1-yl]-b-D-galactopyranoside]]	300 nM	–	50 nM	–
Cc1nccnc1[C@H](S[C@@H]1O[C@H](CO)[C@H](O)[C@H](n2cc(-c3cc(F)c(F)c(F)c3)nn2)[C@H]1O)C1(O)CCC(F)(F)CC1 [Example 2.44.129S., (2S,3R,4S,5R,6R)-2-(((S)-(4,4-Difluoro-1-hydroxycyclohexyl)(3-methylpyrazin-2-yl)methyl)thio)-6-(hydroxymethyl)-4-(4-(3,4,5-trifluorophenyl)-1H-1,2,3-triazol-1-yl)tetrahydro-2H-pyran-3,5-diol]	6300 nM	1480 nM	–	–
CO[C@@H]1[C@@H](n2cc(-c3cc(F)c(F)c(F)c3)nn2)[C@@H](O)[C@@H](CO)O[C@H]1S[C@H](c1ncccc1C(C)C)C1(O)CCC(F)(F)CC1 [Example 2.44.132R.I., (2R,3R,4S,5R,6S)-6-(((R)-(4,4-Difluoro-1-hydroxycyclohexyl)(3-isopropylpyridin-2-yl)methyl)thio)-2-(hydroxymethyl)-5-methoxy-4-(4-(3,4,5-trifluorophenyl)-1H-1,2,3-triazol-1-yl)tetrahydro-2H-pyran-3-ol]	100 nM	–	120 nM	–
OC[C@H]1O[C@@H](SC(c2nccnc2Cl)C2(O)CCC(F)(F)CC2)[C@H](O)[C@@H](n2cc(-c3cc(F)c(F)c(F)c3)nn2)[C@H]1O (stereo partly drawn) [Example 2.44.133., (2S,3R,4S,5R,6R)-2-(((3-Chloropyrazin-2-yl)(4,4-difluoro-1-hydroxycyclohexyl)methyl)thio)-6-(hydroxymethyl)-4-(4-(3,4,5-trifluorophenyl)-1H-1,2,3-triazol-1-yl)tetrahydro-2H-pyran-3,5-diol]	450 nM	40 nM	–	–
CO[C@@H]1[C@@H](n2cc(-c3cc(F)c(F)c(F)c3)nn2)[C@@H](O)[C@@H](CO)O[C@H]1SC(c1nccnc1Cl)C1(O)CCC(F)(F)CC1 (stereo partly drawn) [Example 2.44.133.I., (2R,3R,4S,5R,6S)-6-(((3-Chloropyrazin-2-yl)(4,4-difluoro-1-hydroxycyclohexyl)methyl)thio)-2-(hydroxymethyl)-5-methoxy-4-(4-(3,4,5-trifluorophenyl)-1H-1,2,3-triazol-1-yl)tetrahydro-2H-pyran-3-ol]	1220 nM	–	–	170 nM
OC[C@H]1O[C@@H](S[C@H](c2nccnc2Cl)C2(O)CCC(F)(F)CC2)[C@H](O)[C@@H](n2cc(-c3cc(F)c(F)c(F)c3)nn2)[C@H]1O [Example 2.44.133R., (2S,3R,4S,5R,6R)-2-(((R)-(3-Chloropyrazin-2-yl)(4,4-difluoro-1-hydroxycyclohexyl)methyl)thio)-6-(hydroxymethyl)-4-(4-(3,4,5-trifluorophenyl)-1H-1,2,3-triazol-1-yl)tetrahydro-2H-pyran-3,5-diol]	160 nM	20 nM	–	–
